Tests used:
Format in all cases: cell-based
PC12 cells [1] = assay: Flow cytometry of sub-G1 nuclei from PC12 cells transiently transfected with Bcl-2-GFP and exposed to H2O2; settings: treated cells compared with untreated controls; FIG. 5
From the text: FIG. 5: Flow cytometry measuring apoptotic cells from PC12 cells transiently transfected with Bcl-2-GFP with and without H2O2 treatment.
An alternative explanation would be that Bcl-2 relocates to the nucleus in response to apoptosis. […] However, there was no increase in the percent of sub-G1 nuclei carrying Bcl-2-GFP in cells treated with H2O2 as compared to untreated cells. In fact, there was a paradoxical decrease, which is expected if one appreciates that the number of sub-G1 nuclei increased after H2O2 treatment without a concomitant increase of nuclear Bcl-2-GFP. Therefore, nuclear association of Bcl-2 was […] apoptosis.

PC12 cells [2] = assay: Cell survival of naive PC12 cells transiently co-transfected with Bcl-2 or vector and BH4 or BH4Gly; settings: transient (24 hr) transfection of the BH4 vector alone, without Bcl-2, FIG. 20
Description: FIG. 20: Cell survival was measured in PC12 cells transiently co-transfected with Bcl-2 or vector, and either vector, BH4 or BH4Gly.
(§1) The overall rationale of the experiment was to determine if domain interference disrupted Bcl-2/FKBP38 binding, changed Bcl-2's cellular localization (i.e., result in Bcl-2 misplacement at the nucleus) and ultimately promoted Bcl-2-triggered apoptosis. […] The rationale for using a peptide larger that the BH4 domain itself was to provide structure stability to the alpha-helix of the BH4 domain (AA 11-25) through sufficient flanking regions. Cells were further co-transfected with renilla luciferase so as to determine the extent of their survival. […] It is important to note that PC12 cells expressing Bcl-2 cells diddo not depend on Bcl-2 for their survival and therefore the effect of the BH4 peptide was not due to abolishment of Bcl-2 protection. Rather, it reflected an active induction of apoptosis by Bcl-2, triggered by the BH4 peptide. The possibility that PC12 cells expressing Bcl-2 may have undergone selection during the establishment of stable transfection that could have rendered them non-specifically sensitive to the BH4 peptide was excluded.

[3] = system: Human leukemia cells (HL-60); assay: Cell death as LDH release in HL-60 cells transiently transfected with BH4 peptide-expressing vector; settings: HL-60, 48 after transfection, vs. Flag or BH4Gly; FIG. 24
Description: The extent of cell death was assessed 48 after transfection as release of LDH in the cell culture medium.
The extent of cell death was assessed 48 after transfection as release of LDH in the cell culture medium. Statistical difference was vs. Flag or BH4Gly (Two-tailed Student “t” test; N=4-7 independent measurements per group).

[4] = system: PC12 cells stably expressing vector or Bcl-2; assay: Cell survival (renilla luciferase) of stably transfected PC12 cells transiently transfected with BH4 peptide vector; settings: FIG. 19
Description: FIG. 19: Cell survival was measured in PC12 cells stably expressing vector or Bcl-2. These two cell lines were transiently co-transfected with luciferase and either vector, BH4 domain, or BH4Gly.
as §1

| Compound | sub-G1 (apoptotic) nuclei (PC12 cells [1]) | cell survival (PC12 cells [2]) | cell death (release of LDH in the cell culture medium) [3] | induction of apoptosis / survival ([4]; PC12 cells not expressing Bcl-2 (empty vector pmKitNeo)) | survival of cells (renilla luciferase) ([4]; PC12 cells stably expressing Bcl-2, compared with BH4-transfected cells stably expressing empty pmKitNeo) |
| --- | --- | --- | --- | --- | --- |
| OO [H2O2] | substantial increase | – | – | – | – |
| BH4 peptide: vector-expressed peptide identical to the N-terminal 30 amino acids of Bcl-2, including the 11-25 BH4 domain (MAHAGRTGYDNREIVMKYIHYKLSQRGYEW; UniProt P10415 1-30, looked up, fragment) | – | did not affect cell survival | effective in inducing cell death | unaffected | significantly lower |

Reference: US20070154962A1, “Bcl-2 promoted cell death” (priority 2005, published 2007)
